# Data taken from paper PMC12649549, “Sequence Permutation Generated Lysine and Tryptophan-Rich Antimicrobial Peptides with Enhanced Therapeutic Index” (Antibiotics, 2025).
# Like-named read-outs stand apart in the source and are kept apart here.
# How the values were obtained:
# [1] = system: Escherichia coli (ATCC 25922)
# Protocol: (§1) The antibacterial and salt-resistant activity of the peptides was tested using Escherichia coli (ATCC 25922), Pseudomonas aeruginosa Migula (ATCC 27853), Acinetobacter sp. (BCRC number 14B0091, BCRC number 14B0097, and BCRC number 14B0100), and Staphylococcus aureus sp. strains (ATCC 25923, ATCC 33591, ATCC 33592, ATCC 33593, and ATCC 6538). All bacteria were obtained from the Food Industry Research and Development Institute (Hsinchu, Taiwan) and cultured in sterilized Müller-Hinton (MH) broth at 37 °C and 200 rpm for 8 h. The inoculum concentrations were determined by measuring the optical density at 600 nm (OD 600 = 1, approximately 10^8 CFU/mL) using an Ultrospec 2100 pro UV-Visible spectrophotometer (Biochrom Ltd., Cambridge, UK) after 8 h of culture.
# (§2) The antibacterial activities of the peptides in Müller-Hinton (MH) broth and modified LYM broth were determined using the standard broth microdilution method as per Clinical and Laboratory Standards Institute (CLSI) guidelines. The LYM broth was prepared with specific components and adjusted to different conditions, including varying concentrations of NaCl and MgCl2, and different pH levels. To prepare the LYM broth, 5.4 mM KCl, 5.6 mM Na2HPO4, 0.5 mM MgSO4, and 1.0 mM sodium citrate were added. Additionally, 0.4 mg of ZnCl2, 2.0 mg of FeCl3·6H2O, 0.1 mg of CuSO4·5H2O, 0.1 mg of MnSO4·H2O, 0.1 mg of Na2B4O7∙10H2O, 700 mg of amino acid mixtures without tryptophan (Takara Bio Inc., San Jose, CA, USA), and 20 mg of L-tryptophan were added per liter of medium. The pH was adjusted to 7.4, and a vitamin mixture (100X, Sigma) and glucose concentration of 2% were added. For different conditions of LYM broth, NaCl concentrations of 300, 200, 150, and 50 mM, MgCl2 concentrations of 2.5, 1.5, and 0.5 mM, and pH levels of 6.5, 5.5, and 4.5 were adjusted. Bacterial strains were incubated in MH broth overnight, regrown, and diluted to a final concentration of 5 × 10^5 CFU/mL. Peptides were added to each well at final concentrations of 50, 25, 12.5, 6.25, 3.13, 1.56, and 0.78 µg/mL, and 99 µL of diluted microbes was loaded into each well of a polypropylene 96-well plate. […] The Morpheus HeatMap software (https://software.broadinstitute.org/morpheus/) was used to display MIC values on a color scale. All experiments were independently repeated three times.
# [2] = system: S. aureus ATCC 25923
# Protocol: as §1, §2
# [3] = system: S. aureus ATCC 33593
# Protocol: as §1, §2
# [4] = system: A. baumannii 14B0097 (Acinetobacter sp., BCRC number 14B0097)
# Protocol: as §1, §2
# [5] = system: S. aureus ATCC 33591
# Protocol: as §1, §2
# [6] = system: A. baumannii 14B0091 (Acinetobacter sp., BCRC number 14B0091)
# Protocol: as §1, §2
# [7] = system: S. aureus ATCC 6538
# Protocol: as §1, §2
# [8] = system: A. baumannii 14B00100 (Acinetobacter sp., BCRC number 14B0100)
# Protocol: as §1, §2
# [9] = LYM broth, 0 mM NaCl, 16 h, 37 °C
# [10] = LYM broth, 50 mM NaCl, 16 h, 37 °C
# [11] = LYM broth, 100 mM NaCl, 16 h, 37 °C
# [12] = LYM broth, 200 mM (NaCl), 16 h, 37 °C
# [13] = LYM broth, 300 mM (NaCl), 16 h, 37 °C
# [14] = MH broth, 5 × 10^5 CFU/mL, 16 h, 37 °C, repeated three times
substance,measurement,setting,value
Ac-KWRKWLKWLAKKK-NH2 [Peptide W5K01],MIC,[1]; [9],3.13 mg/L
same,MIC,"[1]; LYM broth, 0.5 mM MgCl2",6.25 mg/L
same,MIC,"[1]; LYM broth, 1.5 mM MgCl2",6.25 mg/L
same,MIC,"[1]; LYM broth, 2.5 mM MgCl2",12.5 mg/L
same,MIC,[1]; [10],6.25 mg/L
same,MIC,[1]; [11],25 mg/L
same,MIC,[1]; [12],>50 mg/L
same,MIC,[1]; [13],>50 mg/L
same,MIC,"[1]; LYM broth, pH 4.5",3.13 mg/L
same,MIC,"[1]; LYM broth, pH 5.5",3.13 mg/L
same,MIC,"[1]; LYM broth, pH 6.5",3.13 mg/L
same,MIC,[1]; [14],12.5 mg/L
same,MIC,[2]; [9],3.13 mg/L
same,MIC,"[2]; LYM broth, 0.5 mM MgCl2",3.13 mg/L
same,MIC,"[2]; LYM broth, 1.5 mM MgCl2",6.25 mg/L
same,MIC,"[2]; LYM broth, 2.5 mM MgCl2",6.25 mg/L
same,MIC,[2]; [10],6.25 mg/L
same,MIC,[2]; [11],12.5 mg/L
same,MIC,[2]; [12],50 mg/L
same,MIC,[2]; [13],>50 mg/L
same,MIC,"[2]; LYM broth, pH 4.5",3.13 mg/L
same,MIC,"[2]; LYM broth, pH 5.5",3.13 mg/L
same,MIC,"[2]; LYM broth, pH 6.5",1.56 mg/L
same,MIC,[2]; [14],12.5 mg/L
same,MIC,[3]; [9],6.25 mg/L
same,MIC,"[3]; LYM broth, 0.5 mM MgCl2",6.25 mg/L
same,MIC,"[3]; LYM broth, 1.5 mM MgCl2",6.25 mg/L
same,MIC,"[3]; LYM broth, 2.5 mM MgCl2",6.25 mg/L
same,MIC,[3]; [10],6.25 mg/L
same,MIC,[3]; [11],12.5 mg/L
same,MIC,[3]; [12],25 mg/L
same,MIC,[3]; [13],50 mg/L
same,MIC,"[3]; LYM broth, pH 4.5",6.25 mg/L
same,MIC,"[3]; LYM broth, pH 5.5",3.13 mg/L
same,MIC,"[3]; LYM broth, pH 6.5",3.13 mg/L
same,MIC,[3]; [14],50 mg/L
same,MIC,[4]; [9],1.56 mg/L
same,MIC,"[4]; LYM broth, 0.5 mM MgCl2",1.56 mg/L
same,MIC,"[4]; LYM broth, 1.5 mM MgCl2",3.13 mg/L
same,MIC,"[4]; LYM broth, 2.5 mM MgCl2",3.13 mg/L
same,MIC,[4]; [10],1.56 mg/L
same,MIC,[4]; [11],3.13 mg/L
same,MIC,[4]; [12],3.13 mg/L
same,MIC,[4]; [13],12.5 mg/L
same,MIC,"[4]; LYM broth, pH 4.5",3.13 mg/L
same,MIC,"[4]; LYM broth, pH 5.5",3.13 mg/L
same,MIC,"[4]; LYM broth, pH 6.5",1.56 mg/L
same,MIC,[4]; [14],6.25 mg/L
same,MIC,[5]; [9],6.25 mg/L
same,MIC,"[5]; LYM broth, 0.5 mM MgCl2",6.25 mg/L
same,MIC,"[5]; LYM broth, 1.5 mM MgCl2",6.25 mg/L
same,MIC,"[5]; LYM broth, 2.5 mM MgCl2",6.25 mg/L
same,MIC,[5]; [10],12.5 mg/L
same,MIC,[5]; [11],12.5 mg/L
same,MIC,[5]; [12],25 mg/L
same,MIC,[5]; [13],50 mg/L
same,MIC,"[5]; LYM broth, pH 4.5",6.25 mg/L
same,MIC,"[5]; LYM broth, pH 5.5",6.25 mg/L
same,MIC,"[5]; LYM broth, pH 6.5",3.13 mg/L
same,MIC,[5]; [14],50 mg/L
same,MIC,[6]; [9],1.56 mg/L
same,MIC,"[6]; LYM broth, 0.5 mM MgCl2",1.56 mg/L
same,MIC,"[6]; LYM broth, 1.5 mM MgCl2",1.56 mg/L
same,MIC,"[6]; LYM broth, 2.5 mM MgCl2",3.13 mg/L
same,MIC,[6]; [10],3.13 mg/L
same,MIC,[6]; [11],3.13 mg/L
same,MIC,[6]; [12],3.13 mg/L
same,MIC,[6]; [13],12.5 mg/L
same,MIC,"[6]; LYM broth, pH 4.5",1.56 mg/L
same,MIC,"[6]; LYM broth, pH 5.5",1.56 mg/L
same,MIC,"[6]; LYM broth, pH 6.5",1.56 mg/L
same,MIC,[6]; [14],6.25 mg/L
same,MIC,[7]; [9],3.13 mg/L
same,MIC,"[7]; LYM broth, 0.5 mM MgCl2",1.56 mg/L
same,MIC,"[7]; LYM broth, 1.5 mM MgCl2",1.56 mg/L
same,MIC,"[7]; LYM broth, 2.5 mM MgCl2",3.13 mg/L
same,MIC,[7]; [10],6.25 mg/L
same,MIC,[7]; [11],12.5 mg/L
same,MIC,[7]; [12],12.5 mg/L
same,MIC,[7]; [13],25 mg/L
same,MIC,"[7]; LYM broth, pH 4.5",3.13 mg/L
same,MIC,"[7]; LYM broth, pH 5.5",1.56 mg/L
same,MIC,"[7]; LYM broth, pH 6.5",1.56 mg/L
same,MIC,[7]; [14],12.5 mg/L
same,MIC,[8]; [9],1.56 mg/L
same,MIC,"[8]; LYM broth, 0.5 mM MgCl2",1.56 mg/L
same,MIC,"[8]; LYM broth, 1.5 mM MgCl2",1.56 mg/L
same,MIC,"[8]; LYM broth, 2.5 mM MgCl2",3.13 mg/L
same,MIC,[8]; [10],1.56 mg/L
same,MIC,[8]; [11],3.13 mg/L
same,MIC,[8]; [12],3.13 mg/L
same,MIC,[8]; [13],6.25 mg/L
same,MIC,"[8]; LYM broth, pH 4.5",1.56 mg/L
same,MIC,"[8]; LYM broth, pH 5.5",1.56 mg/L
same,MIC,"[8]; LYM broth, pH 6.5",1.56 mg/L
same,MIC,[8]; [14],6.25 mg/L
